Results published in ChEMBL document CHEMBL1201862, “PubChem BioAssay data set” (2004).
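A five-concentration, 48-hour dose response in 96-well plates underlies each endpoint, interpolated linearly between surrounding concentrations. GI50 is the concentration that inhibits growth by half.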 Active and inactive are the calls of the source. Rule as the data show it: active = GI50 up to about 1.1 µM and inactive = higher.

What was measured:
Experiment in all cases: DTP human tumour cell line panel, 48 h
CAKI-1 = tested on: CAKI-1
UACC-62 = tested on: UACC-62
U-251 = tested on: U-251
COLO 205 = tested on: COLO 205
NCI-H226 = tested on: NCI-H226
M14 = tested on: M14
NCI-H460 = tested on: NCI-H460
SR = tested on: SR
SK-MEL-5 = tested on: SK-MEL-5
SNB-19 = tested on: SNB-19
SK-OV-3 = tested on: SK-OV-3
OVCAR-5 = tested on: OVCAR-5
SK-MEL-28 = tested on: SK-MEL-28
OVCAR-4 = tested on: OVCAR-4
IGROV-1 = tested on: IGROV-1
A549 = tested on: A549
EKVX = tested on: EKVX
HCT-116 = tested on: HCT-116
HL-60 = tested on: HL-60
CCRF-CEM = tested on: CCRF-CEM

Measured: GI50

CC(C)(C)/N=C1\C(=O)C2(C)CCC1C2(C)C (configuration not stated)
inactive: CAKI-1 > 100 µM | UACC-62 14.3 µM | U-251 > 100 µM | COLO 205 > 100 µM | NCI-H226 > 100 µM | M14 > 100 µM | NCI-H460 > 100 µM | SR > 100 µM | SK-MEL-5 > 100 µM | SNB-19 > 100 µM | SK-OV-3 > 100 µM | OVCAR-5 > 100 µM | SK-MEL-28 > 100 µM | OVCAR-4 > 100 µM | IGROV-1 > 100 µM | A549 > 100 µM | EKVX > 100 µM | HCT-116 > 100 µM

CCOC(=O)N1CCC(=C2c3ccc(Cl)cc3CCc3cccnc32)CC1 [LORATADINE]
inactive: UACC-62 4.73 µM | HL-60 6.12 µM | COLO 205 9.14 µM | NCI-H226 14.6 µM | M14 12.4 µM | NCI-H460 3.44 µM | SR 2.64 µM | SK-MEL-5 2.08 µM | SK-OV-3 15.5 µM | OVCAR-5 20.8 µM | SK-MEL-28 5.57 µM | CCRF-CEM 4.32 µM | OVCAR-4 3.69 µM | IGROV-1 1.79 µM | A549 13.4 µM | EKVX 13.9 µM | HCT-116 11.2 µM

[N-]=[N+]=NC1(N=[N+]=[N-])C(=O)NN=C(c2ccccc2)C1=O (configuration not stated)
inactive: UACC-62 57.7 µM | HL-60 35.3 µM | U-251 > 100 µM | COLO 205 > 100 µM | NCI-H226 > 100 µM | M14 > 100 µM | NCI-H460 > 100 µM | SR 32.7 µM | SK-OV-3 > 100 µM | SK-MEL-28 16.3 µM | CCRF-CEM 32.2 µM | OVCAR-4 57.4 µM | IGROV-1 > 100 µM | A549 > 100 µM | EKVX > 100 µM | HCT-116 16.8 µM

O=C(NCCN1CCOCC1)c1cn2c(ccc3sc4ccccc4c(=O)c32)n1
inactive: CAKI-1 > 100 µM | HL-60 8.02 µM | U-251 10 µM | COLO 205 7.24 µM | NCI-H226 32 µM | NCI-H460 4.02 µM | SR 9.73 µM | SK-MEL-5 9.77 µM | SNB-19 87.5 µM | OVCAR-5 10.7 µM | SK-MEL-28 46.9 µM | CCRF-CEM > 10 µM | IGROV-1 22.9 µM | A549 4.62 µM | EKVX > 100 µM | HCT-116 5.22 µM

FC1(F)[Se]C2C3CCC(C3)C2C1(F)F (configuration not stated)
inactive: CAKI-1 > 100 µM | UACC-62 > 100 µM | U-251 > 100 µM | COLO 205 > 100 µM | NCI-H226 > 100 µM | M14 > 100 µM | NCI-H460 > 100 µM | SR > 100 µM | SK-MEL-5 > 100 µM | SNB-19 > 100 µM | SK-OV-3 > 100 µM | OVCAR-5 > 100 µM | SK-MEL-28 > 100 µM | OVCAR-4 > 100 µM | IGROV-1 > 100 µM | A549 > 100 µM | EKVX > 100 µM | HCT-116 56.2 µM

O=C1CNNC(Cn2nc(-c3ccccc3)c3ccccc3c2=O)=N1
inactive: UACC-62 > 100 µM | HL-60 > 100 µM | U-251 > 100 µM | COLO 205 > 100 µM | NCI-H226 > 100 µM | M14 > 100 µM | NCI-H460 > 100 µM | SR > 100 µM | SK-MEL-5 > 100 µM | SNB-19 > 100 µM | SK-OV-3 > 100 µM | OVCAR-5 > 100 µM | SK-MEL-28 > 100 µM | CCRF-CEM > 100 µM | OVCAR-4 > 100 µM | IGROV-1 > 100 µM | A549 > 100 µM | HCT-116 > 100 µM

CCCCNC(=O)C1C2CCC(O2)C1C(=O)O (configuration not stated)
inactive: UACC-62 17.5 µM | U-251 13.6 µM | COLO 205 16.6 µM | NCI-H226 19 µM | M14 14.2 µM | NCI-H460 41 µM | SR 18.8 µM | SK-MEL-5 20.2 µM | SNB-19 23.7 µM | SK-OV-3 23.1 µM | OVCAR-5 > 100 µM | SK-MEL-28 28 µM | OVCAR-4 29.6 µM | IGROV-1 > 100 µM | A549 31 µM | EKVX 13.7 µM | HCT-116 12 µM

COC(=O)[C@@]1(C)CCC[C@]2(C(=O)O)C3Cc4occc4[C@H](C)[C@@H]3CCC21 (some centres not stated)
inactive: UACC-62 62.5 µM | HL-60 41.1 µM | U-251 31.1 µM | NCI-H226 84.3 µM | M14 76.4 µM | NCI-H460 33.8 µM | SR 59.7 µM | SK-MEL-5 89.1 µM | SNB-19 71.1 µM | SK-OV-3 56.1 µM | OVCAR-5 > 100 µM | SK-MEL-28 > 100 µM | CCRF-CEM 22.3 µM | IGROV-1 44.6 µM | A549 38.5 µM | EKVX 39.1 µM | HCT-116 35.2 µM

CCN(CC)CCOCCn1c2c(c3ccccc31)CCCC2
inactive: UACC-62 17 µM | HL-60 9.73 µM | U-251 17.2 µM | COLO 205 17.7 µM | NCI-H226 26.4 µM | M14 16.9 µM | NCI-H460 22.8 µM | SR 16.3 µM | SK-MEL-5 13.5 µM | SK-OV-3 27.4 µM | OVCAR-5 23.3 µM | SK-MEL-28 17 µM | CCRF-CEM 18.8 µM | OVCAR-4 26 µM | IGROV-1 18.9 µM | A549 23.9 µM | EKVX 40.2 µM | HCT-116 15.8 µM

COC(=O)CNC(=O)Nc1cc(N2C(=O)ON3C2C(C)(C)N(O)C3(C)C)ccc1C (configuration not stated)
inactive: CAKI-1 > 100 µM | UACC-62 > 100 µM | U-251 > 100 µM | COLO 205 > 100 µM | NCI-H226 > 100 µM | M14 > 100 µM | NCI-H460 > 100 µM | SR > 100 µM | SK-MEL-5 > 100 µM | SNB-19 > 100 µM | SK-OV-3 > 100 µM | OVCAR-5 > 100 µM | SK-MEL-28 > 100 µM | CCRF-CEM > 100 µM | OVCAR-4 > 100 µM | IGROV-1 > 100 µM | A549 > 100 µM | EKVX > 100 µM | HCT-116 > 100 µM

CC(C)=CCNc1ncnc2c1ncn2CCC#N
inactive: UACC-62 > 100 µM | HL-60 > 100 µM | U-251 > 100 µM | COLO 205 > 100 µM | NCI-H226 > 100 µM | M14 > 100 µM | NCI-H460 > 100 µM | SR > 100 µM | SK-MEL-5 > 100 µM | SNB-19 > 100 µM | SK-OV-3 > 100 µM | OVCAR-5 > 100 µM | SK-MEL-28 > 100 µM | CCRF-CEM > 100 µM | OVCAR-4 45.1 µM | IGROV-1 > 100 µM | A549 > 100 µM | HCT-116 > 100 µM
